The text below walks through data of US9428504B2, “7-hydroxy-spiropipiperidine indolinyl antagonists of P2Y1 receptor” (BRISTOL-MYERS SQUIBB COMPANY, priority 2012, dated 2016).

Assay [1] addresses cloned human P2Y1 receptors (Homo sapiens (Human), UniProt P47900). Nature of the assay: Binding Assay B: Scintillation Proximity Assay (SPA) for P2Y1 binding. Conditions: SPA, [33P] 2MeS-ADP displacement; read-out: P2Y1 Ki (nM) using binding assay B. The essentials:
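Membranes with ~15 fmol receptor (1.7 μg total protein) incubated with 0.3 nM [^33P]-labelled radioligand for 1 h at room temperature to completion. After centrifugation and removal of aqueous phase, bound radioactivity read by scintillation proximity; inhibition of radioligand binding measured.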

Assay [2] relates to human platelet rich plasma (PRP). Nature of the assay: ADP induced platelet aggregation assay. Conditions: Homo sapiens, Platelet, read-out: PA IC50 (μM) @ 10 μM ADP, platelet aggregation induced by 10 μM ADP, human PRP.
Description: The ability of P2Y1 antagonists covered in the present invention to inhibit platelet aggregation induced by 10 μM ADP was tested using human platelet rich plasma (PRP) as described in Platelet Protocols: Research and Clinical Laboratory Procedures (White, M. M. et al., Academic Press (1999)). Human blood was collected in 30 μM (final concentration in blood) argatroban (GSK) as the anticoagulant at a ratio of 1 ml per 9 ml of blood. The PRP was isolated by centrifugation at 170 g for 12 minutes. The platelet poor plasma (PPP) was used as the blank for optical aggregometry. Compounds of the present invention in DMSO solution was preincubated with 250 μl PRP at 37° C. for 1 minute with stirring speed of 1000 rpm. Aggregation was initiated by addition of 2.5 μl of 1 mM ADP (Chrono-log, Havertown, Pa.) for a final ADP concentration of 10 μM. Platelet aggregation was monitored using Optical Aggregometer (Chrono-log, Havertown, Pa.) and the area under the curve (AUC) at 5 minute was measured. IC50 was calculated using vehicle control as 0% inhibition.

Structures can show the parent of a compound that is named as a salt.

Sequence of cloned human P2Y1 receptors (P47900 whole entry): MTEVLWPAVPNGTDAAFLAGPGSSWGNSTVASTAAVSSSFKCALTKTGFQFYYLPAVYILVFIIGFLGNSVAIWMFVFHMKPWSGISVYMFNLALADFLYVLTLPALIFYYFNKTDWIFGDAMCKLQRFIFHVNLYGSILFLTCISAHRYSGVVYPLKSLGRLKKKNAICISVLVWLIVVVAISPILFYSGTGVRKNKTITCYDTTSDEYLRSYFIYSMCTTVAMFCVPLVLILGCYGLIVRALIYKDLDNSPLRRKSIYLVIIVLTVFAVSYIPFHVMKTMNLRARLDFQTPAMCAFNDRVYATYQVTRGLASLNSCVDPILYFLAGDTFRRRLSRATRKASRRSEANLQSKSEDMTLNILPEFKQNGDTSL

A word on the Ki: it is the dissociation constant of the complex between target and ligand, obtained from inhibition or displacement. For orientation: IC50 means the concentration that inhibits the measured activity by half. For `CC(C)(C)CN1CCC2(CC1)CN(c1ccc(C#N)cc1NC(=O)Nc1ccc(OC(F)(F)F)cc1)c1c(O)ccc(Cl)c12` [Example 69, 1-(2-(4-Chloro-7-hydroxy-1′-neopentylspiro[indoline-3,4′-piperidine]-1-yl)-5-cyanophenyl)-3-(4-(trifluoromethoxy)phenyl)urea], the inhibition constant Ki in assay [1] was found to be 21.4 nM. The IC50 in assay [2] amounted to 0.8 µM.

On to `CC(C)(C)CN1CCC2(CC1)CN(c1ccc(C#N)cc1NC(=O)Nc1nc3ccc(F)cc3s1)c1c(O)ccc(Cl)c12` [Example 70, 1-(2-(4-Chloro-7-hydroxy-1′-neopentylspiro[indoline-3,4′-piperidine]-1-yl)-5-cyanophenyl)-3-(6-fluorobenzo[d]thiazol-2-yl)urea], for which the Ki in assay [1] was 29.4 nM. The IC50 in assay [2] worked out at 1 µM.

In the case of `CC(C)(C)CN1CCC2(CC1)CN(c1ccccc1NC(=O)Nc1nc3c(s1)CN(CC(F)(F)F)CC3)c1c(O)ccc(Cl)c12` [Example 71, 1-(2-(4-Chloro-7-hydroxy-1′-neopentylspiro[indoline-3,4′-piperidine]-1-yl)phenyl)-3-(5-(2,2,2-trifluoroethyl)-4,5,6,7-tetrahydrothiazolo[5,4-c]pyridin-2-yl)urea], the Ki in assay [1] came to 11.1 nM. Besides, the half-inhibitory concentration (IC50) in assay [2] was found to be 0.3 µM.

For the compound `CC(C)(C)CN1CCC2(CC1)CN(c1ccccc1NC(=O)Nc1nc3c(s1)CN(C(=O)C(F)(F)F)CC3)c1c(O)ccc(Cl)c12` [Example 72, 1-(2-(4-Chloro-7-hydroxy-1′-neopentylspiro[indoline-3,4′-piperidine]-1-yl)phenyl)-3-(5-(2,2,2-trifluoroacetyl)-4,5,6,7-tetrahydrothiazolo[5.4-c]pyridin-2-yl)urea], in assay [1], the Ki turned out to be 22.4 nM. For the same compound, the IC50 in assay [2] turned out to be 0.2 µM.

`CC(C)C(=O)N1CCc2nc(NC(=O)Nc3ccccc3N3CC4(CCN(CC(C)(C)C)CC4)c4c(Cl)ccc(O)c43)sc2C1` [Example 73, 1-(2-(4-Chloro-7-hydroxy-1′-neopentylspiro[indoline-3,4′-piperidine]-1-yl)phenyl)-3-(5-isobutyryl-4,5,6,7-tetrahydrothiazolo [5,4-c]pyriidn-2-yl)urea]: in assay [1], the Ki was found to be 17.9 nM. Further, in assay [2], the IC50 was 0.5 µM.

`CC(C)CN1CCc2nc(NC(=O)Nc3ccccc3N3CC4(CCN(CC(C)(C)C)CC4)c4c(Cl)ccc(O)c43)sc2C1` [Example 74, 1-(2-(4-Chloro-7-hydroxy-1′-neopentylspiro[indoline-3,4′-piperidine]-1-yl)phenyl)-3-(5-isobutyl-4,5,6,7-tetrahydrothiazolo[5,4-c]pyridin-2-yl)urea]: the Ki in assay [1] stood at 10.3 nM. Further, the IC50 in assay [2] was 0.2 µM.

As to `COC(=O)c1ccc(O)c2c1C1(CCN(CC(C)(C)C)CC1)CN2c1ccccc1NC(=O)Nc1nc2ccc(F)cc2s1` [Example 77, Methyl 1-(2-(3-(6-fluorobenzo[d]thiazol-2-yl)ureido)phenyl)-7-hydroxy-1′-neopentylspiro[indoline-3,4′-piperidine]-4-carboxylate], the Ki in assay [1] is 8.7 nM. The IC50 in assay [2] was determined as 0.3 µM.

On to `COC(=O)c1ccc(O)c2c1C1(CCN(CC(C)(C)C)CC1)CN2c1ccccc1NC(=O)Nc1ccc(F)cc1F` [Example 78, Methyl 1-(2-(3-(2,4-difluorophenyl)ureido)phenyl)-7-hydroxy-1′-neopentylspiro[indoline-3,4′-piperidine]-4-carboxylate], for which the inhibitory constant (Ki) in assay [1] came out at 7.9 nM. In addition, in assay [2], the IC50 was 0.7 µM.

On to `COC(=O)c1ccc(O)c2c1C1(CCN(CC(C)(C)C)CC1)CN2c1ccccc1NC(=O)Nc1ccc(OC(F)(F)F)cc1` [Example 79, Methyl 7-hydroxy-1′-neopentyl-1-(2-(3-(4-(trifluoromethoxy)phenyl)ureido)phenyl)-spiro[indoline-3,4′-piperidine]-4-carboxylate], for which the Ki in assay [1] was found to be 9 nM. Besides, the IC50 in assay [2] turned out to be 0.7 µM.

As for `CC(C)CN1CCC2(CC1)CN(c1ccccc1NC(=O)Nc1nc3ccc(Cl)cc3s1)c1c(O)ccc(C#N)c12` [Example 80, 1-(6-Chlorobenzo[d]thiazol-2-yl)-3-(2-(4-cyano-7-hydroxy-1′-isobutylspiro[indoline-3,4′-piperidine]-1-yl)phenyl)urea], in assay [1], the Ki was 14.4 nM. Besides, the IC50 in assay [2] is 0.9 µM.

For `CC(C)(C)CN1CCC2(CC1)CN(c1ccccc1NC(=O)Nc1nc3ccc(F)cc3s1)c1c(O)ccc(C#N)c12` [Example 81, 1-(2-(4-Cyano-7-hydroxy-1′-neopentylspiro[indoline-3,4′-piperidine]-l-yl)phenyl)-3-(6-fluorobenzo[d]thiazol-2-yl) urea, trifluoroacetic acid salt], in assay [1], the Ki stood at 5 nM. Further, the IC50 in assay [2] stood at 0.6 µM.

As for `CC(C)(C)CN1CCC2(CC1)CN(c1ccccc1NC(=O)Nc1ccc(C(C)(C)C)cc1)c1c(O)ccc(C#N)c12` [Example 82, l-(4-tert-Butylphenyl)-3-(2-(4-cyano-7-hydroxy-1′-neopentylspiro[indoline-3,4′-piperidine]-l-yl)phenyl)urea, trifluoroacetic acid salt], the Ki in assay [1] stood at 24.8 nM. Besides, the IC50 in assay [2] came to 1 µM.

Regarding `CC(C)(C)CN1CCC2(CC1)CN(c1ccccc1NC(=O)Nc1nc3ccc(Cl)cc3s1)c1c(O)ccc(C#N)c12` [Example 83, l-(6-Chlorobenzo[d]thiazol-2-yl)-3-(2-(4-cyano-7-hydroxy-1′-neopentylspiro[indoline-3,4′-piperidine]-1-yl)phenyl) urea, trifluoroacetic acid salt], the Ki in assay [1] worked out at 5.7 nM. In assay [2], the IC50 turned out to be 0.2 µM.

`Cc1ccc2nc(NC(=O)Nc3ccccc3N3CC4(CCN(CC(C)(C)C)CC4)c4c(C#N)ccc(O)c43)sc2c1` [Example 84, 1-(2-(4-Cyano-7-hydroxy-1′-neopentylspiro[indoline-3,4′-piperidine]-l-yl)phenyl)-3-(6-methylbenzo[d]thiazol-2-yl) urea, trifluoroacetic acid salt]: the Ki in assay [1] stood at 11.8 nM. In addition, the IC50 in assay [2] came to 0.5 µM.

Regarding `CC(C)(C)CN1CCC2(CC1)CN(c1ccccc1NC(=O)Nc1csc(Cl)n1)c1c(O)ccc(C#N)c12` [Example 85, l-(2-Chlorothiazol-4-yl)-3-(2-(4-cyano-7-hydroxy-1′-neopentylspiro[indoline-3,4′-piperidine]-1-yl)phenyl)urea], in assay [1], the Ki was 3.7 nM. The IC50 in assay [2] is 0.4 µM.

In the case of `CN(C)S(=O)(=O)c1ccc(O)c2c1C1(CCN(CC(C)(C)C)CC1)CN2c1ccccc1NC(=O)Nc1ccc(OC(F)(F)F)cc1` [Example 89, 7-Hydroxy-N,N-dimethyl-1′-neopentyl-1-(2-(3-(4-(trifluoromethoxy)phenyl)ureido)phenyl)spiro[indoline-3,4′-piperidine]-4-sulfonamide], the Ki in assay [1] amounted to 5.3 nM. Besides, in assay [2], the IC50 turned out to be 0.4 µM.

`CCN(CC)S(=O)(=O)c1ccc(O)c2c1C1(CCN(CC(C)(C)C)CC1)CN2c1ccccc1NC(=O)Nc1ccc(C(C)(C)C)cc1` [Example 90, 1-(2-(3-(4-tert-Butylphenyl)ureido)phenyl)-N,N-diethyl-7-hydroxy-1′-neopentylspiro [indoline-3,4′-piperidine]-4-sulfonamide, trifluoroacetic acid salt]: the Ki in assay [1] stood at 3.5 nM. The IC50 in assay [2] was 0.2 µM.

For the compound `CCN(CC)S(=O)(=O)c1ccc(O)c2c1C1(CCN(CC(C)(C)C)CC1)CN2c1ccccc1NC(=O)Nc1ccc(OC(F)(F)F)cc1` [Example 91, N,N-Diethyl-7-hydroxy-1′-neopentyl-1-(2-(3-(4-(trifluoromethoxy)phenyl)ureido)phenyl)spiro [indoline-3,4′-piperidine]-4-sulfonamide trifluoroacetic acid salt], the Ki in assay [1] came to 3.4 nM. Besides, the IC50 in assay [2] was 0.3 µM.

With `CCN(CC)S(=O)(=O)c1ccc(O)c2c1C1(CCN(CC(C)(C)C)CC1)CN2c1ccccc1NC(=O)Nc1nc2ccc(Cl)cc2s1` [Example 92, 1-(2-(3-(6-Chlorobenzo[d]thiazol-2-yl)ureido)phenyl)-N,N-diethyl-7-hydroxy-1′-neopentylspiro[indoline-3,4′-piperidine]-4-sulfonamide], in assay [1], the Ki was 15.8 nM. In assay [2], the IC50 was 0.5 µM.

On to `CC(C)(C)CN1CCC2(CC1)CN(c1ccccc1NC(=O)Nc1nc3ccc(F)cc3s1)c1c(O)cc(F)c(Cl)c12` [Example 93, 1-(2-(4-Chloro-5-fluoro-7-hydroxy-1′-neopentylspiro [indoline-3,4′-piperidine]-1-yl)phenyl)-3-(6-fluorobenzo[d]thiazol-2-yl)urea], for which the Ki in assay [1] was found to be 13.5 nM. The IC50 in assay [2] was found to be 0.5 µM.

For the compound `CC(C)(C)CN1CCC2(CC1)CN(c1ccccc1NC(=O)Nc1nc3ccc(F)cc3s1)c1c(O)cc(F)c(F)c12` [Example 95, 1-(2-(4,5-Difluoro-7-hydroxy-1′-neopentylspiro [indoline-3,4′-piperidine]-1-yl)phenyl)-3-(6-fluorobenzo[d]thiazol-2-yl)urea], in assay [1], the Ki turned out to be 14.7 nM. In assay [2], the IC50 was determined as 0.5 µM.

For `CC(C)(C)CN1CCC2(CC1)CN(c1ccccc1NC(=O)Nc1nc3ccc(Cl)cc3s1)c1c(O)cc(F)c(F)c12` [Example 96, l-(6-Chlorobenzo[d]thiazol-2-yl)-3-(2-(4,5-difluoro-7-hydroxy-1′-neopentylspiro[indoline-3,4′-piperidine]-1-yl)phenyl)urea], the inhibitory constant (Ki) in assay [1] was 25.8 nM. In assay [2], the IC50 stood at 0.3 µM.

Turning to `Cc1ccc2nc(NC(=O)Nc3ccccc3N3CC4(CCN(CC(C)(C)C)CC4)c4c(Cl)c(F)cc(O)c43)sc2c1` [Example 97, 1-(2-(4-Chloro-5-fluoro-7-hydroxy-1′-neopentylspiro [indoline-3,4′-piperidine]-1-yl)phenyl)-3-(6-melhylbenzo [d]thiazol-2-yl)urea], the Ki in assay [1] came to 11.5 nM. In assay [2], the IC50 came to 0.7 µM.
